Data published in US11572590B2, “Methods for evaluating tumor cell spheroids using 3D microfluidic cell culture device” (Dana-Farber Cancer Institute, Inc., priority 2017, dated 2023).
Where two headings read alike, the source gives them in different places.

How the values were obtained:
Assay in all cases: SelectScreen Kinase Profiling, single point inhibition and IC50 for off-target kinases
Format in all cases: biochemical
off-target kinases [1] = target: off-target kinases (Homo sapiens, UniProt Q16288); settings: NTRK3 (TRKC), ZLYTE, ATP Km app
Chain of off-target kinases (Homo sapiens, UniProt Q16288) (Q16288 32-839): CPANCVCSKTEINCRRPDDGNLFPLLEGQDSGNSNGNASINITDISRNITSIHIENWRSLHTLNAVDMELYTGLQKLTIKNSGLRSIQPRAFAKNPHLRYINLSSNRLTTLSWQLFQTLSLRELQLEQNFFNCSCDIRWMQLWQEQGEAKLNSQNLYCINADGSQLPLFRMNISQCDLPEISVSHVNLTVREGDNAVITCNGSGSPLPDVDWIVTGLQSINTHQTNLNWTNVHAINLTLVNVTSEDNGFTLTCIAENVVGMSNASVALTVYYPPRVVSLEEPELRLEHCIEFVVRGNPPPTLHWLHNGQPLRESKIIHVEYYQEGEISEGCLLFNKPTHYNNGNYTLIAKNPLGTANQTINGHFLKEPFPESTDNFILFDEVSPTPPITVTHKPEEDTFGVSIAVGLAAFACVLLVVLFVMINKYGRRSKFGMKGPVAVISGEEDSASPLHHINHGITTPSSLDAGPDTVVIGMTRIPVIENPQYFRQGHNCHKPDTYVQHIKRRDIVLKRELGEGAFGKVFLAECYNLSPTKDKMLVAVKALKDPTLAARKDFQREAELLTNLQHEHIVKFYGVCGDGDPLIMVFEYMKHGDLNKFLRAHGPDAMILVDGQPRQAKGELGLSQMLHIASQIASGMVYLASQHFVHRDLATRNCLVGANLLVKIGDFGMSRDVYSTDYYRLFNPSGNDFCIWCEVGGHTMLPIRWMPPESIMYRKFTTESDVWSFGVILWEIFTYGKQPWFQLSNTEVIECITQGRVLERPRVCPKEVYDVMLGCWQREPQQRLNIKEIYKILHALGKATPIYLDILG

off-target kinases [2] = target: off-target kinases (Homo sapiens, UniProt Q13882)
Chain of off-target kinases (Homo sapiens, UniProt Q13882) (Q13882 whole entry): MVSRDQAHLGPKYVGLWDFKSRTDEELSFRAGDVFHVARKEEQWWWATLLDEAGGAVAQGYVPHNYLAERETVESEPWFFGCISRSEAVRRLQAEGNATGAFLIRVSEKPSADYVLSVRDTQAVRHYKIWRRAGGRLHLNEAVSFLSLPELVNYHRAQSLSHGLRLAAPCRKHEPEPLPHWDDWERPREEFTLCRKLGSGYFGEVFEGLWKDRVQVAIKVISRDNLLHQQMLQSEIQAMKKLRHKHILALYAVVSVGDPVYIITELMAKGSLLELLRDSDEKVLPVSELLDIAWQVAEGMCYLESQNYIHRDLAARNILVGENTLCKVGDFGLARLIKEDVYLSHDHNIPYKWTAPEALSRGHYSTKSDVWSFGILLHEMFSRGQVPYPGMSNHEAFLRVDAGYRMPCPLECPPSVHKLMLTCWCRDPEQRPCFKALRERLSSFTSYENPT

off-target kinases [3] = target: off-target kinases (Homo sapiens, UniProt Q9UKE5); settings: TNIK, LanthaScreen Binding
Chain of off-target kinases (Homo sapiens, UniProt Q9UKE5) (Q9UKE5 whole entry): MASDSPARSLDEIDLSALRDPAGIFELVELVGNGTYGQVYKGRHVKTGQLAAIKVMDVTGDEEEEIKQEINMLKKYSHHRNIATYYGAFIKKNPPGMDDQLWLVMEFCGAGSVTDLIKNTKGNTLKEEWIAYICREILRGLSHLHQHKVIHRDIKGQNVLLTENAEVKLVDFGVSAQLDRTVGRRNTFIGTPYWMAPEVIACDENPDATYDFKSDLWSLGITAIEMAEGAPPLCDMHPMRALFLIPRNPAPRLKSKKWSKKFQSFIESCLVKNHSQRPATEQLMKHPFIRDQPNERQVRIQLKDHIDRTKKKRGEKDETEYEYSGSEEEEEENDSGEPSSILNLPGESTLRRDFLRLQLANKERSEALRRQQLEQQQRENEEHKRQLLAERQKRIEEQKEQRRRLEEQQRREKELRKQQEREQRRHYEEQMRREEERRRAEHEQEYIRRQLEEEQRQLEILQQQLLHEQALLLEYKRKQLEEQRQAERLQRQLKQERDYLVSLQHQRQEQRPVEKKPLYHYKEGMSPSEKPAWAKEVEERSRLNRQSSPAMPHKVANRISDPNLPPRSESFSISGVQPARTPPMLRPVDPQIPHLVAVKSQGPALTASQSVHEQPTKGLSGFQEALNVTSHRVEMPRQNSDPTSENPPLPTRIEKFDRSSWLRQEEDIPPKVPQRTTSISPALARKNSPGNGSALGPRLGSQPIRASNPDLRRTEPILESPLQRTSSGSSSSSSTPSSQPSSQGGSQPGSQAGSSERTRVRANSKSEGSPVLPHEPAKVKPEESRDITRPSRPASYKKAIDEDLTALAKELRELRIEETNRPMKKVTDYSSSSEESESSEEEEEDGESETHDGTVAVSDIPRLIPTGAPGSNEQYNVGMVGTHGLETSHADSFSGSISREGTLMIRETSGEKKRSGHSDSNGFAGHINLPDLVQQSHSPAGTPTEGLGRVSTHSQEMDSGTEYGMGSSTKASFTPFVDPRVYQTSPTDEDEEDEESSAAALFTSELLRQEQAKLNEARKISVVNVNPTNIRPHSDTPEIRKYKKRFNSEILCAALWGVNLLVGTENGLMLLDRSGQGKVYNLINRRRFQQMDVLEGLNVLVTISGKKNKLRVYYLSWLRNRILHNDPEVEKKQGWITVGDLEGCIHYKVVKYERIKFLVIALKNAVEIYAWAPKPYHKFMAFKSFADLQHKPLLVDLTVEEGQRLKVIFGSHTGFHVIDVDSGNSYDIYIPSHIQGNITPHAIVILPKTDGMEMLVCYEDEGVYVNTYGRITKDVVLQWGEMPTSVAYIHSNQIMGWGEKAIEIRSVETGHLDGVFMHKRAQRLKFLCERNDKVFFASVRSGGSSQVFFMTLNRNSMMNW

off-target kinases [4] = target: T1, off-target kinases (Homo sapiens, UniProt Q16566)
T1 sequence (Q16566 1-473): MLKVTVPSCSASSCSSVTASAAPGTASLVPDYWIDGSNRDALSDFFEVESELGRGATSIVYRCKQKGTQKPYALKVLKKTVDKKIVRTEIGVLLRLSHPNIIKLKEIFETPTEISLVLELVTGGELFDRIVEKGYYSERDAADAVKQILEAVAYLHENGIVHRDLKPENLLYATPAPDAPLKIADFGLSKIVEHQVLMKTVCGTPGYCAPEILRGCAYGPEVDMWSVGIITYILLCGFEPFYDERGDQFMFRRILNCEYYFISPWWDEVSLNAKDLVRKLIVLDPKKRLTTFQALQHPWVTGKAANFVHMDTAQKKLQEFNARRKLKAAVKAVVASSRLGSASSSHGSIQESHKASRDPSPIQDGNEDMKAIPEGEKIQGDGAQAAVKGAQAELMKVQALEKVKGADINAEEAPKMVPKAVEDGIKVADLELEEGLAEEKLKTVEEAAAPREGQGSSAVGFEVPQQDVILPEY

off-target kinases [5] = target: T2, off-target kinases (Homo sapiens, UniProt O00329); settings: PIK3CD/PIK3R1 (p110 delta/p85 alpha), Adapta, ATP Km app
T2 sequence (O00329 1-1044): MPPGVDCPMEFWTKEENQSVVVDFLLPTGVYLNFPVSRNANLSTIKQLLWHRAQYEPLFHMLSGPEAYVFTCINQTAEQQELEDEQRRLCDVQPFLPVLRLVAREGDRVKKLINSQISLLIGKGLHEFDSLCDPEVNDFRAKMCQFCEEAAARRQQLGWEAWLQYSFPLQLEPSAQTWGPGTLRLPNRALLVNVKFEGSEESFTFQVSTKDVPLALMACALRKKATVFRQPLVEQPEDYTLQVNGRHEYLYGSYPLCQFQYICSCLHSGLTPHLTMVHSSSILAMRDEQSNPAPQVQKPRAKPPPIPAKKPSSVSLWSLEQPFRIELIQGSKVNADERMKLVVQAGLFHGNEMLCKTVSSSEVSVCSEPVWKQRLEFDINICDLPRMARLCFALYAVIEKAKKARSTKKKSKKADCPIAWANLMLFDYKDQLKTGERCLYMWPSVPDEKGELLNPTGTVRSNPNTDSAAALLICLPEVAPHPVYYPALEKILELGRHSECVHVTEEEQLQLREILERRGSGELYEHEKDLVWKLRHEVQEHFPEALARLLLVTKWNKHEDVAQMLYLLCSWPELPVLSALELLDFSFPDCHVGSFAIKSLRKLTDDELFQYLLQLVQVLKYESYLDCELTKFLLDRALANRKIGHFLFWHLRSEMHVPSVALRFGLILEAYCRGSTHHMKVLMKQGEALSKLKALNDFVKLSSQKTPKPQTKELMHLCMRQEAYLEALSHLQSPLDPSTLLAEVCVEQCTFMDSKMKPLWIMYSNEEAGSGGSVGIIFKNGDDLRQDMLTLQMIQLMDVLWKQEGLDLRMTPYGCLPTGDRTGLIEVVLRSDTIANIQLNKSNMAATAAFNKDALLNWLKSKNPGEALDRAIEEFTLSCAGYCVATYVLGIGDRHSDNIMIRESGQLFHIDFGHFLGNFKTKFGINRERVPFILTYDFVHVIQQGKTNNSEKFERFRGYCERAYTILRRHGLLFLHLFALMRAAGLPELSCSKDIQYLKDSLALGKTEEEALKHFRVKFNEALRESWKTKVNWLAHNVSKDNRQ

`N#Cc1cc(-c2ncnc(Nc3ccc(N4CCN(C5COC5)CC4)cc3)n2)ccc1OC1CCOCC1` [Compound 1, 5-(4-((4-(4-(oxetan-3-yl)piperazin-1-yl)phenyl)amino)-1,3,5-triazin-2-yl)-2-((tetrahydro-2H-pyran-4-yl)oxy)benzonitrile] gave an inhibition (off-target kinases [1]; read-out: % Inhibition 1) of 17%, an inhibition (off-target kinases [1]; read-out: % Inhibition 2) of 19% and an inhibition (off-target kinases [1]; read-out: % Inhibition Avg) of 18%. The inhibition (off-target kinases [2]; PTK6 (Brk), ZLYTE, ATP Km app, read-out: % Inhibition 2) was -1%, the inhibition (off-target kinases [2]; read-out: % Inhibition 1) was -1% and the inhibition (off-target kinases [2]; read-out: % Inhibition Avg) was -1%. For the same compound, the inhibition (off-target kinases [3]; read-out: % Inhibition 1) was 46%, the inhibition (off-target kinases [3]; read-out: % Inhibition 2) was 43% and the inhibition (off-target kinases [3]; read-out: % Inhibition Avg) was 45%. It also gave an inhibition (off-target kinases [4]; CAMK4 (CaMKIV), ZLYTE, ATP Km app, read-out: % Inhibition 2) of -2%, an inhibition (off-target kinases [4]; CAMK4 (CaMKIV), ZLYTE, ATP Km app, read-out: % Inhibition Avg) of -2% and an inhibition (off-target kinases [4]; read-out: % Inhibition 1) of -2%. It also gave an inhibition (off-target kinases [5]; read-out: % Inhibition 1) of 22%, an inhibition (off-target kinases [5]; read-out: % Inhibition 2) of 9% and an inhibition (off-target kinases [5]; read-out: % Inhibition Avg) of 16%.
